Reference: patent publication US10563272B2, “Compositions comprising Metarhizium fungi and use thereof as a pesticide” (Cotton Research and Development Corporation, priority 2015, dated 2020)

Tests used:
green mirids = test: Rate trial on conventional cotton refuge crops, Undabri 2012 (Example 12): green mirids; type: in vivo, Creontiades dilutus; details: adults P<0.03, nymphs P<0.001
Protocol: This trial was conducted using commercial conventional cotton refuge crops at Undabri in Goondiwindi (28° 55'S, 150° 31′E) from 14 Feb. to 6 Mar. 2012.
The efficacy of the following treatments against green mirids, green vegetable bugs and predatory insects was assessed: • 1. 250 mL/ha DAT 511 spore in oil (1×10^7 spores/ml); • 2. 500 mL/ha DAT 511 spore in oil (1×10^7 spores/ml); • 3. 1 L/ha DAT 511 spore in oil (1×10^7 spores/ml); • 4. 62.5 mL/ha fipronil; and • 5. Unsprayed (negative control).
The plots were arranged in a randomized complete block design with three replicates per treatment. Each replicated plot measured 8 m (8 rows) wide and 250 m long.
Foliar applications of each treatment were made on 14 Feb. 2012 using a ground spray rig fitted with flat fan nozzles to achieve a droplet size of 200 μm. All insecticide formulations were water miscible. All treatments were applied using a spray volume of 100 L/ha. The untreated (negative control) plot was left unsprayed and the plot treated with synthetic insecticide received two applications similar to, and on the same date as, the plots treated with the fungus.
For each replicate, visual counts of adults and nymphs of green mirids, green vegetable bugs (GVB), apple dimpling bugs and predatory insects on whole cotton plants were made in a randomly selected 1 m length of row of cotton plants (i.e. 6 m per treatment). […]

predatory lacewings [1] = test: Bollgard II cotton, Auscott-Togo 2012-13, Field 63 (Experiment 2): predatory lacewings; type: in vivo, Chrysopa spp., Micromus tasmaniae; details: 62.5 mL/ha
Protocol: (§1) Two separate trials (Experiment 1 in Field 77; Experiment 2 in Field 63) were conducted in Bollgard II cotton crops on a commercial cotton farm at Auscott-Togo near Narrabri, New South Wales from 11 Feb. to 5 Mar. 2013 (Field 77) and 19 Feb. to 6 Mar. 2013 (Field 63). The cotton used for each of the trials was at the late squaring to pod setting and maturation stages which was fairly attractive to green mirids.
(§2) In both trials, the efficacy of the following treatments against green mirids and predatory insects was evaluated: • 1. 250 mL/ha DAT 511 spore in oil (1×10^7 spores/ml); • 2. 500 mL/ha DAT 511 spore in oil (1×10^7 spores/ml); • 3. 1 L/ha DAT 511 spore in oil (1×10^7 spores/ml); • 4. 62.5 mL/ha of fipronil; and • 5. Unsprayed (negative control).
(§3) The treatment plots were arranged in a randomized complete block design with six replicates per treatment. Each replicated plot measured 40 m wide (40 rows) and 90 m long.
(§4) Foliar application of each treatment was made on 28 Feb. (for both green mirids and beneficial insects) and 13 Mar. 2012 (for beneficial insects alone) using a ground spray rig fitted with flat fan nozzles to achieve a droplet size of 200 μm. The treatment was applied during the mornings when temperatures were between 20° C. and 28° C. The timing of treatment was based on the IPM Guidelines and recommendations by CottonLogic to use an economic threshold of 0.5 green mirids per metre (Deutscher and Wilson 1999; Khan et al. 2004).
(§5) Pre-treatment counts of green mirid adults and nymphs, predatory beetles, predatory bugs, predatory lacewings and spiders were made by visual inspection of whole cotton plants. Both adults and nymphs of beneficial insects were counted. Plants were assessed in randomly selected one-metre lengths of row of each replicate (i.e. 6 m per treatment). Post-treatment counts were made 3, 7, 14 and 21 days after treatment. Data are expressed as numbers of green mirid adults and nymphs counted per metre for each treatment.

[2] = tested on: Creontiades dilutus (green mirids); test: Foliar spray trial on Bollgard II cotton, Norwood 2010-11 (Example 7): green mirids; type: in vivo; details: first spray, three DAT; BC 667/DAT 511 500 mL/ha, fipronil 62.5 mL/ha
Protocol: The trial was conducted on commercial Bollgard II® cotton crops at Norwood near Moree, NSW from 5 Dec. 2010 to 19 Feb. 2011. The cotton was at the early squaring stage, when it was attractive to green mirids (Khan et al. 2004).
The study evaluated the efficacy of the following treatments against green mirids, green vegetable bugs and predatory insects: • 1. 500 mL/ha BC 667 spore in oil (1×10^7 spores/ml); • 2. 500 mL/ha DAT 511 spore in oil (1×10^7 spores/ml); • 3. 62.5 mL/ha Fipronil (conventional insecticide); and • 4. Unsprayed (control).
The treatment plots were arranged in a randomized complete block design with four replicates per treatment. Each replicated plot measured 0.5 ha. Foliar application of each treatment was made on 18 Jan. 2011 using a ground spray rig fitted with flat fan nozzles to achieve a droplet size of 80 250 μm. The treatment was applied in the mornings when temperature was between 20° C. and 28° C. […]
Pre-treatment counts of green mirid adults and nymphs, predatory beetles, predatory bugs, predatory lacewings and spiders were made by visual inspection of whole cotton plants. Both adults and nymphs of the beneficial insects were counted. Plants were assessed in randomly selected one-metre lengths of row of each treatment replicate (i.e. four metres per treatment). […] Data are expressed as numbers of individuals of that species counted per metre for each treatment.

predatory lacewings [3] = test: Bollgard II cotton, Auscott-Togo 2012-13, Field 77 (Experiment 1): predatory lacewings; type: in vivo, Chrysopa spp., Micromus tasmaniae; details: 62.5 mL/ha
Protocol: as §1, §2, §3, §4, §5

spiders = test: Bollgard II cotton, Auscott-Togo 2012-13, Field 63 (Experiment 2): spiders; type: in vivo, Lycosa spp., Oxyopes spp., Salticidae spp., Araneus spp.; details: 62.5 mL/ha
Protocol: as §1, §2, §3, §4, §5

## N#Cc1nn(-c2c(Cl)cc(C(F)(F)F)cc2Cl)c(N)c1[S+]([O-])C(F)(F)F (centres unmarked) [fipronil]
Green mirids
  green mirid adults and nymphs per metre versus unsprayed plots: Significantly fewer
Predatory lacewings [1]; 3 DAT
  No. predatory lacewings per meter: 0.00 ± 0.00 a per meter
Predatory lacewings [1]; 7 DAT
  No. predatory lacewings per meter: 0.00 ± 0.00 a per meter
Predatory lacewings [1]; 14 DAT
  No. predatory lacewings per meter: 0.00 ± 0.00 a per meter
Predatory lacewings [1]; 21 DAT
  No. predatory lacewings per meter: 0.00 ± 0.00 a per meter
Predatory lacewings [1]; pre-spray counts
  No. predatory lacewings per meter: 0.67 ± 0.33 a per meter
[2]
  green mirid mortality: 100%
Predatory lacewings [3]; 3 DAT
  No. predatory lacewings per meter: 0.00 ± 0.00 a per meter
Predatory lacewings [3]; 7 DAT
  No. predatory lacewings per meter: 0.00 ± 0.00 a per meter
Predatory lacewings [3]; 14 DAT
  No. predatory lacewings per meter: 0.33 ± 0.33 a per meter
Predatory lacewings [3]; 21 DAT
  No. predatory lacewings per meter: 0.33 ± 0.33 a per meter
Predatory lacewings [3]; pre-spray counts
  No. predatory lacewings per meter: 0.00 ± 0.00 a per meter
spiders; 3 DAT
  No. spiders per meter: 7.33 ± 1.45 a per meter
spiders; 7 DAT
  No. spiders per meter: 4.33 ± 0.67a per meter
spiders; 14 DAT
  No. spiders per meter: 1.33 ± 0.33a per meter
spiders; 21 DAT
  No. spiders per meter: 3.67 ± 0.33 a per meter
spiders; pre-spray counts
  No. spiders per meter: 11.67 ± 1.61 a per meter
